Data taken from patent US11192900B2, “Substituted 1,6-dihydropyridinones and 1,2-dihydroisoquinolinones as bet inhibitors” (NUVATION BIO INC., priority 2018, dated 2021).
Where two headings read alike, the source gives them in different places.

Columns and labels:
[1] = tested on: MV-4-11 human acute myeloid leukemia cell line; experiment: Second cell viability assay in MV-4-11 (Cell Titer-Glo); type: cell-based; settings: MV4-11, Cell Titer-Glo, 72 hrs, read-out: Cell Viability IC50 in MV4-11 cells
Experimental: The effects of test compounds were studied in a second cell viability assay in the MV-4-11 human acute myeloid leukemia cell line. The cells were harvested during the logarithmic growth period and counted. Cells were seeded at a count of 15000 cells per well/100 μl. After seeding, cells were incubated at 37° C., 5% CO2 for 1 hr. Cells were treated with test compounds at 8 concentrations within a desired concentration range (e.g. 5 nM-[…]) for generation of dose response curves by preparing serial dilutions of the test compound in DMSO which were further diluted with culture medium and then added to each well. The plate was further incubated for another 72 hrs in a humidified incubator at 37° C. and 5% CO2. The assay was terminated by addition of Cell Titer-Glo reagent (Promega, Madison, Wis.) at ¼ the volume of total medium per well. Contents were mixed, the plate was incubated for 10 min at room temperature and luminescence was measured. Cell viability data were plotted using GraphPad Prism (GraphPad Software, Inc., San Diego, Calif.). In addition, a nonlinear regression model with a sigmoidal dose response and variable slope within GraphPad Prism was used to calculate the IC50 value of individual test compounds.

c-Myc = experiment: Measurement of c-Myc suppression after washoff (Western blot); type: cell-based, human; settings: MV4-11, 2 μM for 2 hr, washed, further 6 hr
Experimental: MV4-11 cells were incubated with 2 μM of JQ1, mivebresib or a test compound for 2 hr. The cells were then washed twice with fresh culture medium and further cultured for another 6 hr. Cells were extracted with SDS sample buffers and then subjected to Western blot analysis to measure c-Myc. Compounds 2, 3, 12, 17, 409, 411 and 412 were tested in these assays.

BRD4-1 = BRD4-1 (Homo sapiens (Human), UniProt O60885); experiment: Bromodomain and Extraterminal Domain (BET) Binding Assay; settings: Table 3; read-out: BRD4-1 IC50
Experimental: (§1) The bromodomain binding assays were performed by Reaction Biology Corp., Malvern, Pa., USA (www.reactionbiology.com). The BET binding assays were conducted in 384 well microplates in assay buffer (50 mM HEPES-HCl, pH 7.5, 100 mM NaCl, 1 mg/ml BSA, 0.05% CHAPS, and 0.5% DMSO) with compounds added as DMSO stocks at a single concentration or with 10-point dose response titrations. BET protein or assay buffer were delivered to the appropriate wells of the microplate. Test compound was then delivered by acoustic technology via a Labcyte Echo550 liquid handler. The microplate was centrifuged for 5 min and pre-incubated for 30 min at RT with gentle shaking. The ligand (histone H4 peptide (1-21) K5/8/12/16Ac-biotin) was delivered and the microplate was again centrifuged for 5 min and allowed to incubate for 30 min at RT with gentle shaking. Donor beads were then added in the absence of light and the microplate was centrifuged and gently shaken. After 5 min, acceptor beads were added in the absence of light and the microplate was centrifuged and gently shakenin the dark for 60 min. The microplate was read using a Perkin Elmer EnSpire Alpha plate reader (λEx/λEm=680/520-620 nm). Percent inhibition was calculated relative to positive and negative controls on a per plate basis. For titration experiments, IC50 values were determined by fitting the percent inhibition versus compound concentration.

BRD4-2 = BRD4-2 (Homo sapiens (Human), UniProt O60885); experiment: as above; settings: Table 3; read-out: BRD4-2 IC50
Experimental: as §1

[2] = tested on: IEC-6 rat intestinal epithelial cell line; experiment: IEC-6 cell viability, Protocol B (toxicity to non-cancerous cells); type: cell-based; settings: IEC-6, 4000 cells per well, 48 hrs
Experimental: The effects of test compounds were also studied in the IEC-6 rat intestinal epithelial cell line to assess potential toxicity to non-cancerous cells. The cells were harvested during the logarithmic growth period and counted. In Protocol A, cells were seeded at a count of 3000 cells per well/100 μl in a 96-well plate. After seeding, cells were incubated at 37° C., 5% CO2 for 24 hr. Cells were treated with test compounds at 8 concentrations within a desired concentration range (e.g. 5 nM-10 μM) for generation of dose response curves by preparing serial dilutions of the test compound in DMSO which were further diluted with culture medium and then added to each well. The plate was further incubated for another 96 hrs in humidified incubator at 37° C. and 5% CO2. The assay was terminated by addition of resazurin (# R7017, Sigma). The plate was incubated for 4 hr at 37° C., 5% CO2 and fluorescence was measured using excitation and emission wavelengths of 535 and 590 nm, respectively. Cell viability data were plotted using GraphPad Prism (GraphPad Software, Inc., San Diego, Calif.). In addition, a nonlinear regression model with a sigmoidal dose response and variable slope within GraphPad Prism was used to calculate the IC50 value of individual test compounds. Protocol B was the same as Protocol A except that cells were seeded at a count of 4000 cells per well/100 μl in a 96-well plate, and the incubation with test compound was for 48 hrs instead of 96 hrs.

22Rv1 cells = experiment: 22Rv1 cell proliferation assay with wash-off or mock wash-off; type: cell-based, human
Experimental: A 22Rv1 cell proliferation assay was used to assess durability of test compound effects after transient exposure of test compound to cells. 22Rv1 cells were seeded at 3000 cells per well/100 μl in a 96-well plate and incubated with test compounds at specified dilutions for 2 hr at 37° C. and 5% CO2. Following the incubation, test compound was washed off and replacement culture medium without test compound was added. Wash-off was performed by three PBS washes. The cells were incubated for an additional 96 hr at 37° C. and 5% CO2. In parallel, a mock wash-off was performed with cells that were treated identically except that the replacement culture medium contained test compound. The plate was incubated for 4 hr at 37° C., 5% CO2 and fluorescence was measured using excitation and emission wavelengths of 535 and 590 nm, respectively. Cell viability data were plotted using GraphPad Prism (GraphPad Software, Inc., San Diego, Calif.). In addition, a nonlinear regression model with a sigmoidal dose response and variable slope within GraphPad Prism was used to calculate the IC50 value of individual test compounds.

Row | IC50 ([1]; Homo sapiens) [nM] | IC50 (BRD4-1) [nM] | IC50 (BRD4-2) [nM] | SMILES | c-Myc suppression activity after washoff (c-Myc) | IC50 ([2]; Rattus norvegicus) [nM] | IC50 (22Rv1 cells; 22Rv1, 2 hr exposure, three PBS washes, additional 96 hr without compound, read-out: Wash-off IC50) [nM] | IC50 (22Rv1 cells; 22Rv1, 2 hr, replacement medium with test compound, additional 96 hr, read-out: Mock wash-off IC50) [nM] | IC50 [1] [nM] | IC50 [2] [nM] | IC50 (22Rv1 cells; Homo sapiens, 22Rv1, 2 hr exposure, three PBS washes, additional 96 hr without compound, read-out: Wash-off IC50) [nM] | IC50 (22Rv1 cells; Homo sapiens, 22Rv1, 2 hr, replacement medium with test compound, additional 96 hr, read-out: Mock wash-off IC50) [nM]
1 | 253 | 479 | 75 | C=CC(=O)Nc1ccc(Oc2ccc(OC)cc2)c(-c2cn(C)c(=O)c3ccccc23)c1 [Compound 409, N-(4-(4-methoxyphenoxy)-3-(2-methyl-1-oxo-1,2-dihydroisoquinolin-4-yl)phenyl)acrylamide] | rebound in c-Myc expression |  |  |  |  |  |  | 
2 | 221 | 5070 | 43 | C=CC(=O)Nc1ccc(Nc2c(C)cccc2C)c(-c2cn(C)c(=O)c3cc(C(=O)NCC)sc23)c1 [Compound 585, 7-(5-acrylamido-2-(2,6-dimethylphenylamino)phenyl)-N-ethyl-5-methyl-4-oxo-4,5-dihydrothieno[3,2-c]pyridine-2-carboxamide] | less durable activity |  |  |  |  |  |  | 
3 | 84 |  | 119 | C=CS(=O)(=O)Nc1ccc(Oc2ccc(F)cc2F)c(-c2cc(N)c(=O)n(C)c2)c1 [Compound 17, N-(3-(5-amino-1-methyl-6-oxo-1,6-dihydropyridin-3-yl)-4-(2,4-difluorophenoxy)phenyl)ethenesulfonamide] | sustained c-Myc suppression activity |  |  |  |  |  |  | 
4 | 74 | 347 | 10 | C=CC(=O)Nc1ccc(Oc2c(C)cccc2C)c(-c2cc(NC)c(=O)n(C)c2)c1 [Compound 411, N-(4-(2,6-dimethylphenoxy)-3-(1-methyl-5-(methylamino)-6-oxo-1,6-dihydropyridin-3-yl)phenyl)acrylamide] | less durable or no suppression activity |  |  |  |  |  |  | 
5 | 82 | 2850 | 6 | C=CC(=O)Nc1ccc(Oc2c(C)cc(F)cc2C)c(-c2cn(C)c(=O)c3cc(C(=O)NCC)sc23)c1 [Compound 588, 7-(5-acrylamido-2-(4-fluoro-2,6-dimethylphenoxy)phenyl)-N-ethyl-5-methyl-4-oxo-4,5-dihydrothieno[3,2-c]pyridine-2-carboxamide] | less durable activity |  |  |  |  |  |  | 
6 | 71 | 20 | 5 | CCS(=O)(=O)Nc1ccc(Oc2ccc(F)cc2F)c(-n2cc(Cl)c(=O)c3ccccc32)c1 [Compound 661, N-(3-(3-chloro-4-oxoquinolin-1(4H)-yl)-4-(2,4-difluorophenoxy)phenyl)ethanesulfonamide] |  | 273 |  |  |  |  |  | 
7 | 33 | 226 | 1 | C=CC(=O)Nc1ccc(Oc2c(C)cccc2C)c(-c2cn(C)c(=O)cc2OC)c1 [Compound 584, N-(4-(2,6-dimethylphenoxy)-3-(4-methoxy-1-methyl-6-oxo-1,6-dihydropyridin-3-yl)phenyl)acrylamide] | less durable activity |  |  |  |  |  |  | 
8 |  |  |  | Cc1sc2c(c1C)C(c1ccc(Cl)cc1)=N[C@@H](CC(=O)OC(C)(C)C)c1nnc(C)n1-2 [JQ1, reference compound] |  |  | > 10000 | 71 |  |  |  | 
9 | 114 | 22 | 3 | C=CS(=O)(=O)Nc1ccc(Oc2ccc(F)cc2F)c(-c2cn(C)c(=O)cc2OC)c1 [Compound 406, N-(4-(2,4-difluorophenoxy)-3-(4-methoxy-1-methyl-6-oxo-1,6-dihydropyridin-3-yl)phenyl)ethenesulfonamide] |  |  |  |  |  |  | 415 | 255
10 | 51 | 183 | 11 | C=CC(=O)Nc1ccc(Oc2ccc(F)cc2F)c(-c2cn(C)c(=O)cc2OC)c1 [Compound 407, N-(4-(2,4-difluorophenoxy)-3-(4-methoxy-1-methyl-6-oxo-1,6-dihydropyridin-3-yl)phenyl)acrylamide] | less durable activity | 693 |  |  |  |  |  | 

Row | SMILES | IC50 ([1]; Homo sapiens) [nM] | IC50 (BRD4-1) [nM] | IC50 (BRD4-2) [nM] | c-Myc suppression activity after washoff (c-Myc) | IC50 ([2]; Rattus norvegicus) [nM] | IC50 (22Rv1 cells; 22Rv1, 2 hr exposure, three PBS washes, additional 96 hr without compound, read-out: Wash-off IC50) [nM] | IC50 (22Rv1 cells; 22Rv1, 2 hr, replacement medium with test compound, additional 96 hr, read-out: Mock wash-off IC50) [nM] | IC50 [1] [nM] | IC50 [2] [nM] | IC50 (22Rv1 cells; Homo sapiens, 22Rv1, 2 hr exposure, three PBS washes, additional 96 hr without compound, read-out: Wash-off IC50) [nM] | IC50 (22Rv1 cells; Homo sapiens, 22Rv1, 2 hr, replacement medium with test compound, additional 96 hr, read-out: Mock wash-off IC50) [nM]
11 | C=CC(=O)Nc1ccc(Oc2c(C)cccc2C)c(-c2cn(C)c(=O)c3cc(C(=O)NCC)sc23)c1 [Compound 412, 7-(5-acrylamido-2-(2,6-dimethylphenoxy)phenyl)-N-ethyl-5-methyl-4-oxo-4,5-dihydrothieno[3,2-c]pyridine-2-carboxamide] | 25 | 1740 | 4 | less durable or no suppression activity |  |  |  |  |  |  | 
12 | CCS(=O)(=O)Nc1ccc(Oc2ccc(F)cc2F)c(-n2ccc(=O)c3ccccc32)c1 [Compound 709, N-(4-(2,4-difluorophenoxy)-3-(4-oxoquinolin-1(4H)-yl)phenyl)ethanesulfonamide] |  | 1210 | 93 |  |  |  |  | 979 | 2900 |  | 
